Results reported in patent US5817757A, “Inhibitors of peptide binding to MHO class II proteins” (Merck & Co., Inc., priority 1996, dated 1998).
Like-named read-outs stand apart in the source and are kept apart here.

Biological target: T1, DR1Dw1 (Homo sapiens, UniProt P01903+P01911, A100R/D57E/F55L/F60I/F76Y/I96L/L162R/M171V/P40L/Q125E/R42F/V115G/Y59C)
T1 construct: these are Drosophila transmembrane DR; made in house; host or cells: Drosophila (cells)
Assay: Inhibition of biotinylated RMBP 90-102 peptide binding to MHC class II DR1 (europium-streptavidin capture assay)
Procedure: In studies optimizing the assay it was determined that only between 5 to 10% of the DR molecules are capable of binding added peptide. Therefore, the effective concentration of DR1Dw1 and DR4Dw4 was approximately 0.125 and 1.0 nM, respectively. […] The DR-peptide complexes (50 μL) are transferred to wells of a 96-well EIA plate precoated with LB3.1, the monoclonal antibody which recognizes the DR alleles of MHC Class II, and blocked with PBS with fetal calf serum (FCS). An additional 50 μL of 50 mM Tris, pH 7.0, containing 0.75% octyl glucoside is added to each well and the mixture incubated overnight at 4° C. Excess peptide is removed by washing with PBS containing 0.05% Tween 20 (Polyoxyethylene sorbitan monolaurate) and 0.01% NaN3. Europium-labeled streptavidin (Wallac Inc.) is added and incubated overnight. After washing, complexes are measured by the addition of Enhance™ buffer, the tradename for 0.1M acetate phthalate buffer, pH 3.2, containing 0.1% Triton X-100, tradename for polyoxyethylene ethers and other surface active compounds of Union Carbide Chemicals and Plastics Co., Inc. (particularly, a non-ionic surfactant for recovery of membrane components under non-denaturing conditions) 15 μM 2-naphthoyltrifluoroacetone, and 50 μM tri-N-octylphosphine oxide, which buffer releases the chelated europium from streptavidin and forms a highly fluorescent micellar solution. The resultant fluorescence is measured using a fluorescent plate reader (e.g., DELPHIA, Wallac, Inc.). The data are analyzed using a four-parameter logistical curve […] program (e.g., SigmaPlot) that calculates the concentration of biotinylated peptide giving a half-maximal signal (ED50).
The inhibition assay format is identical to the procedure described above with the exception that the unlabeled antagonist is serially diluted and incubated with constant concentrations of biotinylated RMBP 90-102 (0.3 nM for DR1Dw1 or 0.9 nM for DR4Dw4) and the MHC class II proteins. The concentration of unlabeled compound that prevents 50% of the labeled peptide from binding is the IC50 value. The concentration of the biotinylated RMBP 90-102 in each assay is experimentally determined to be […] one-sixth of its measured ED50 to assure the inhibition was primarily measuring the binding characteristics of the competitor.
In particular, a protocol for carrying out the inhibition assay is given below.
Add 115 μL of 5μg/mL LB3.1 in 50 mM Tris HCl pH 9.6/azide to each well of a Costar EIA plate. Incubate the plate overnight at 4° C.
Wash the plate 4 times with water/0.05% Tween-20/azide. Add 200 μL of PBS /5% FCS/azide for 1 hour at 4° C. to block the plate. The plate may be held at this point for later use or used immediately.
Flip out the block. It is not necessary to wash the plate. At 50 μL of load buffer (50 mM Tris HCl, pH 8.0 0.75% octylglucoside). Add to this volume 50 μL of the reaction mix from day 2, step 3 below.
(1) Add the following to a polypropylene round bottom 96-well plate such as a Costar #3794:
(A) Diluent (Ca Mg free PBS adjusted to pH 6.5 with 0.1 M KH2 PO4/0.75% octylglucoside/azide).81 μL
(B) Competitor at 16.6 times the final concentration in diluent or diluent alone. 9 μL
(C) biotinylated rat myelin basic protein (BRMBP) 90-102; 1.5 nM for DR1 or 4.5 nM for DR4 (These are 5× stocks of final concentrations of 0.3 nM/DR1 or 0.9 nM/DR4) 30 μL
(D) 6.25 nM DR1Dw1 or 50 nM DR4Dw4 (these are Drosophila transmembrane DR) (This is a 5× stock of the final concentration of 1.25 or 10 nM.) 30 μL Add the DR last and mix well at this time 150 μL
(2) Incubate at 37° C. for 20 min and 5 hours.
(3) Add 50 μL of this reaction mixture to one well of the blocked antibody plate from day 2 above.
(4) Incubate overnight at 4° C. to capture the DR-peptide complexes.
(6) Add 125 μL of 100 ng/mL europium streptavidin (Wallac Inc.) in Ca Mg free PBS with 3.5 mg DTPA, 1.6 mL of 30% BSA/500 mL to each well.
(7) Incubate 2 to 4 hours at 4° C. […]

[1] = incubation at 37° C. for 20 min, 0.3 nM biotinylated RMBP 90-102, 1.25 nM DR1Dw1, pH 6.5, read-out: IC50 /μM @ 20'
[2] = incubation at 37° C. for 5 hours, 0.3 nM biotinylated RMBP 90-102, 1.25 nM DR1Dw1, pH 6.5, read-out: IC50 /μM @ 5h

IC50 [1]	IC50 [2]	Compound
0.15 µM	0.68 µM	CCCC(NC(=O)C(CCCCN)NCCCC1CCCCC1)C(=O)NN(CC(C)C)C(=O)OCC (stereo not drawn) [Example 48, α-[3 -Cyclohexylpropyl]-Lys-Nva-α-AzaLeu-OEt]
0.046 µM	0.26 µM	CCCCN(NC(=O)C(CCC)NC(=O)C(CCCCN)NCCCC1CCCCC1)C(=O)OCC (stereo not drawn) [Example 50, α-[3-Cyclohexylpropyl]-Lys-Nva-α-AzaNle-OEt]
0.03 µM	0.14 µM	CCCCN(NC(=O)C(CCC)NC(=O)C(CCCCN)NCC1CCc2ccccc2C1)C(=O)OCC (stereo not drawn) [Example 52, α-[1,2,3,4-tetrahydronaphthyl-2-methyl]-Lys-Nva-α-AzaNle-OEt]
0.0052 µM	0.059 µM	CCCC(NC(=O)C(CCCCN)NCCCC1CCCCC1)C(=O)NC(CC(C)C)C(N)=O (stereo not drawn) [Example 40, α-[3-Cyclohexylpropyl]-Lys-Nva-Leu-NH2]

Continued, compound first:

Compound	IC50 [1]	IC50 [2]
CCC[C@H](NC(=O)[C@H](CCCCN)NC(=O)C=Cc1ccccc1C)C(=O)N[C@@H](CC(C)C)C(N)=O [Example 13, α-[2-methylcinnamoyl]-Lys-Nva-Leu-NH2]	0.25 µM	1.7 µM
CCCC(NC(=O)C(CCCCN)NC(=O)CC(C)c1ccccc1)C(=O)NC(CC(C)C)C(N)=O (stereo not drawn) [Example 34, α-[3R-methyl-3-phenylpropionyl]-Lys-Nva-Leu-NH2]	0.16 µM	1.25 µM
α-[3-Phenylpropyl]-Lys-Nva-Leu-NH2 [Example 38]	0.16 µM	1.8 µM
CCCC(NC(=O)C(CCCCN)NC(=O)CC(C)C1CCCCC1)C(=O)NC(CC(C)C)C(N)=O (stereo not drawn) [Example 36, α-[3R-methyl-3-cyclohexylpropionyl]-Lys-Nva-Leu-NH2]	0.04 µM	0.187 µM
CCCC(NC(=O)C(Cc1cccnc1)NCCCC1CCCCC1)C(=O)NC1CCCCNC1=O (stereo not shown) [Example 5]	0.21 µM	1.43 µM
α-[(1R,2S)-1-Cyclohexylcyclopropyl-1-carbonyl]-Lys-Nva-Leu-NH2 [Example 22]	0.012 µM	1.08 µM
CCCC(NC(=O)C(C)(C)NCCCC1CCCCC1)C(=O)NC(CC(C)C)C(N)=O (stereo not drawn) [Example 2, N-α((2-Methyl-2-((3-cyclohexyl)propylamino))-propanoyl)-Nva-Leu-NH2]	0.26 µM	1.59 µM
